Assay results: ChEMBL document CHEMBL5584220, “Design, synthesis, and biological evaluation of aralkyl piperazine and piperidine derivatives targeting SSRI/5-HT1A/5-HT7” (Bioorg Med Chem, 2024)
pIC50, pKi: −log10 of the molar value.

Legend:
[1] = target: 5-hydroxytryptamine receptor 7 (Homo sapiens, UniProt P34969)
[2] = target: T1, 5-hydroxytryptamine receptor 1A (Homo sapiens, UniProt P08908)
T1 sequence (P08908 whole entry): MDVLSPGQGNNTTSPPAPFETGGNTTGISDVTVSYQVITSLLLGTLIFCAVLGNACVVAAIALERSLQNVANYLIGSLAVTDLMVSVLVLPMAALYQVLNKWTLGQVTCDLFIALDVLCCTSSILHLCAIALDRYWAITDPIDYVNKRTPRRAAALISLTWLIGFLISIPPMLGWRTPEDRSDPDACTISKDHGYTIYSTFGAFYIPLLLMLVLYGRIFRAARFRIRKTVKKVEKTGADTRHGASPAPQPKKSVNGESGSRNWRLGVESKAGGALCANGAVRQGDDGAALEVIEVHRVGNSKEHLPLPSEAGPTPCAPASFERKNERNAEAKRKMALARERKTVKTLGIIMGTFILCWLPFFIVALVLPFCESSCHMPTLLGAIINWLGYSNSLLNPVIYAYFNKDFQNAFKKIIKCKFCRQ

[3] = target: Voltage-gated inwardly rectifying potassium channel KCNH2 (Homo sapiens, UniProt Q12809)
[4] = target: Sodium-dependent serotonin transporter (Homo sapiens, UniProt P31645); type: cell-based, HEK293
in vitro [5] = settings: human, liver microsomes
in vitro [6] = settings: mouse, liver microsomes
hERG (KCNH2) = hERG (KCNH2) (Homo sapiens, UniProt Q12809); assay: in vitro; settings: HEK293 cells that express hERG
Chain of hERG (KCNH2) (Q12809 whole entry): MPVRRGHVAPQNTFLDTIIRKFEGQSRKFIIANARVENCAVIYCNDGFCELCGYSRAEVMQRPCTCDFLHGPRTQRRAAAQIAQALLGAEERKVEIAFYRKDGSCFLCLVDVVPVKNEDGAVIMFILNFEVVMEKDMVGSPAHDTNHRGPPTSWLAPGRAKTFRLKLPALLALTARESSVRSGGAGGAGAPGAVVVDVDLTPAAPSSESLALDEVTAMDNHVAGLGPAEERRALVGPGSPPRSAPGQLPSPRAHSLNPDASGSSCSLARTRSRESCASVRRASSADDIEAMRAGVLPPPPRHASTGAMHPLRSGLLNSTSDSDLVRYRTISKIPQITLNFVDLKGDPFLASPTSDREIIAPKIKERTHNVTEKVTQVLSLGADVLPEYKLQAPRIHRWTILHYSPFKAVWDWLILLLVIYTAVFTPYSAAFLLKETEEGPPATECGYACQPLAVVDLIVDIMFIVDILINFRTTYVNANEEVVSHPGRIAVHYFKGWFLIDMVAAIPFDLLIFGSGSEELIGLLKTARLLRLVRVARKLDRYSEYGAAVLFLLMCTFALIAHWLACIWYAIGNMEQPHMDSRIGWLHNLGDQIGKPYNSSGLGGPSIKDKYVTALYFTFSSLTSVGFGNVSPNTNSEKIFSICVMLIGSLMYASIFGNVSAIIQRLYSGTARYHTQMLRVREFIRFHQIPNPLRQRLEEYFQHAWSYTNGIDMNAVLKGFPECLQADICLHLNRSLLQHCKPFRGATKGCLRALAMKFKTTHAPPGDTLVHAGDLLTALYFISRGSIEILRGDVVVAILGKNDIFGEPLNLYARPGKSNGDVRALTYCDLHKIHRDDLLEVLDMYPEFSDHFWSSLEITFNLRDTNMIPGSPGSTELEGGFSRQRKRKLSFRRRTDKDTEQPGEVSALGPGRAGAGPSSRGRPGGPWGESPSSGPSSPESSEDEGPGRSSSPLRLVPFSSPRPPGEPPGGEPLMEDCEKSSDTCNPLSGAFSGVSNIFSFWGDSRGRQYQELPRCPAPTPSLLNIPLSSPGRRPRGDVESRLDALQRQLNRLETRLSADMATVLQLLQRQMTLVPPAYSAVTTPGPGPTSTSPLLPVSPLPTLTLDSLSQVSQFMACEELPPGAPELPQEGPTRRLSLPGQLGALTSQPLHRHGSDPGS

Chain of Sodium-dependent serotonin transporter (P31645 whole entry): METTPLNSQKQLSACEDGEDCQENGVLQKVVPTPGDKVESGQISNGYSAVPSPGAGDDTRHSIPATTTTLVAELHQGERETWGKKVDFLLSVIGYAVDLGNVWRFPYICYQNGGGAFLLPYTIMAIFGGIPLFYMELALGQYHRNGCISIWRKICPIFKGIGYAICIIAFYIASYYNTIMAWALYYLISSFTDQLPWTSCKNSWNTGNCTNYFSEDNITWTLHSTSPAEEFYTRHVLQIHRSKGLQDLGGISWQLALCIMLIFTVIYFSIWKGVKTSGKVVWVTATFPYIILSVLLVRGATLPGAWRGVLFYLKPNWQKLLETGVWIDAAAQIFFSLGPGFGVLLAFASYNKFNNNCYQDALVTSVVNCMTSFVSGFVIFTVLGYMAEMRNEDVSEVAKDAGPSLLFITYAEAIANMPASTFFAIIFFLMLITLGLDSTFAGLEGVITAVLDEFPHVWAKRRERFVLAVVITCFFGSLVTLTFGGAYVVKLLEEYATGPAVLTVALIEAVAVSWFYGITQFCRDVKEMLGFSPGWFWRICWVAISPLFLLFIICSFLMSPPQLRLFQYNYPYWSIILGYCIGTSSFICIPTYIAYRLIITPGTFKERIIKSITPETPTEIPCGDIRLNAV
Chain of 5-hydroxytryptamine receptor 7 (P34969 whole entry): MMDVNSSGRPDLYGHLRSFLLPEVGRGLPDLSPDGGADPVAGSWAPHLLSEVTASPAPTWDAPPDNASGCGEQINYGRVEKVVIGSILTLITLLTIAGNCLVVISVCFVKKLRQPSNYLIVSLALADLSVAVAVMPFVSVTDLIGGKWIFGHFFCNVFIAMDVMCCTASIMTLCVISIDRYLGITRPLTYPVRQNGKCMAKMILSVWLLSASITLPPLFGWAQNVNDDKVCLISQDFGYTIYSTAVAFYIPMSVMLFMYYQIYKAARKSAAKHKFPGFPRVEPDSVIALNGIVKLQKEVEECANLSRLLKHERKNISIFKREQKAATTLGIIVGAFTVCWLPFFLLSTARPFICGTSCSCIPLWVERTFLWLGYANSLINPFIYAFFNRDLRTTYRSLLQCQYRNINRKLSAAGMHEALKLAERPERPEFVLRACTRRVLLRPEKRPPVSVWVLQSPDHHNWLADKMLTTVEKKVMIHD
Chain of Voltage-gated inwardly rectifying potassium channel KCNH2 (Q12809 whole entry): as the sequence (Q12809 whole entry) above

Structure (SMILES) | pKi [2] | pIC50 [3] | pIC50 [4] | microsomal CLint at 1 µM (in vitro [5]) | microsomal CLint at 1 µM (in vitro [6]) | inhibition at 1 µM (hERG (KCNH2)) | other results
COc1ccccc1N1CCN(CCCCCC(=O)NC2CCCc3ccccc32)CC1 (centres undefined) | 8.18 | – | – | – | – | – | pKi [1]: 8.07
CSc1ccccc1N1CCN(CCCCCC(=O)NC2CCCc3ccccc32)CC1 (centres undefined) | 9.66 | – | – | – | – | – | pKi [1]: 7.28
CCOc1ccccc1N1CCN(CCCCCn2cnc3sc(C)c(C)c3c2=O)CC1 | 8.52 | – | – | – | – | – | pKi [1]: 8.99
Fc1ccc(C2CCN(CCCc3c[nH]c4ccc(F)cc34)CC2)c(-c2ccccc2)c1 | 8.24 | 6.80 | 6.60 | 27.8 µL/min/mg | – | – | pKi [1]: 7.57
CSc1ccccc1N1CCN(CCCCc2c[nH]c3ccc(F)cc23)CC1 | – | – | – | 27.8 µL/min/mg | 156 µL/min/mg | 82.7% | –
CSc1ccccc1C1CCN(CCCc2c[nH]c3ccc(F)cc23)CC1 | – | – | – | 24.5 µL/min/mg | 62.3 µL/min/mg | 96.6% | –
Fc1ccc(C2=CCN(CCCc3c[nH]c4ccc(F)cc34)CC2)c(-c2ccccc2)c1 | – | – | – | 22.1 µL/min/mg | 202 µL/min/mg | 82.6% | –
CSc1ccccc1N1CCN(CCCCCc2c[nH]c3ccc(F)cc23)CC1 | – | – | – | 90.1 µL/min/mg | 83.2 µL/min/mg | 84.5% | –
CCSc1ccccc1N1CCN(CCCc2c[nH]c3ccc(F)cc23)CC1 | – | – | – | 39.5 µL/min/mg | 47.6 µL/min/mg | 90.1% | –
NC(=O)c1ccc2[nH]cc(CCCN3CCC(c4ccc(F)cc4-c4ccccc4)CC3)c2c1 | > 10.40 | – | < 5.00 | – | – | – | –
CCOc1ccccc1N1CCN(CCCc2c[nH]c3ccc(F)cc23)CC1 | – | 6.80 | 9.07 | – | – | – | –
OC(CCN1CCC(c2ccc(F)cc2-c2ccccc2)CC1)c1c[nH]c2ccc(F)cc12 (centres undefined) | – | 6.28 | – | – | – | – | –
COc1ccccc1N1CCN(CCCc2c[nH]c3ccc(F)cc23)CC1 | – | 6.51 | 9.07 | – | – | – | –
CSc1ccccc1N1CCN(CCCc2c[nH]c3ccc(F)cc23)CC1 | – | 6.41 | 8.72 | – | – | – | –
CSc1ccccc1N1CCN(CCCc2c[nH]c3ccc(C#N)cc23)CC1 | – | – | – | 127 µL/min/mg | 208 µL/min/mg | 97.6% | –
COc1ccc2c(c1)[C@]13CCCC[C@@H]1[C@H](C2)N(C)CC3 [DEXTROMETHORPHAN] | – | – | – | 28 µL/min/mg | – | – | –
